Reference: patent publication US8722578B2, “Spiroheterocyclic pyrrolidinedione herbicidal compositions” (Syngenta Participations AG, priority 2008, dated 2014)

Structure (SMILES) | melting point
CCOC(=O)OC1=C(c2cc(C)ccc2C)C(=O)NC12CCN(OC)CC2 [Compound P1] | 170 to 173 °C
CCCOC(=O)OC1=C(c2cc(C)ccc2C)C(=O)NC12CCN(OC)CC2 [Compound P2] | 133 to 136 °C
CON1CCC2(CC1)NC(=O)C(c1cc(C)ccc1C)=C2OC(=O)OC(C)C [Compound P3] | 207 to 209 °C
C=CCOC(=O)OC1=C(c2cc(C)ccc2C)C(=O)NC12CCN(OC)CC2 [Compound P4] | 140 to 142 °C
C=COC(=O)OC1=C(c2cc(C)ccc2C)C(=O)NC12CCN(OC)CC2 [Compound P6] | 162 to 164 °C
CON1CCC2(CC1)NC(=O)C(c1cc(C)ccc1C)=C2OC(=O)OCC(C)(C)C [Compound P7] | 196 to 197 °C
C#CCOC(=O)OC1=C(c2cc(C)ccc2C)C(=O)NC12CCN(OC)CC2 [Compound P8] | 151 to 153 °C
CON1CCC2(CC1)NC(=O)C(c1cc(C)ccc1C)=C2OC(=O)C(C)(C)C [Compound P9] | 158 to 159 °C
CCN(CC)C(=O)OC1=C(c2cc(C)ccc2C)C(=O)NC12CCN(OC)CC2 [Compound P10] | 129 to 131 °C
COC1=C(c2cc(C)ccc2C)C(=O)NC12CCN(OC)CC2 [Compound P11] | 203 to 205 °C
COCOC1=C(c2cc(C)ccc2C)C(=O)NC12CCN(OC)CC2 [Compound P12] | 183 to 185 °C
CON1CCC2(CC1)NC(=O)C(c1cc(C)ccc1C)=C2OS(=O)(=O)C(C)C [Compound P13] | 168 to 170 °C
CCOC(=O)OC1=C(c2c(Cl)cccc2Cl)C(=O)NC12CCN(OC)CC2 [Compound P17] | 229 to 232 °C
CON1CCC2(CC1)NC(=O)C(c1cc(C)ccc1C)=C2OC(C)=O [Compound P19] | 233 to 236 °C
CCC(=O)OC1=C(c2cc(C)ccc2C)C(=O)NC12CCN(OC)CC2 [Compound P20] | 202 to 204 °C
CCOC(=O)OC1=C(c2cc(C)ccc2C)C(=O)NC12CCN(OCC)CC2 [Compound P21] | 167 to 168 °C
CCOC(=O)OC1=C(c2ccc(Cl)cc2Cl)C(=O)NC12CCN(OCC)CC2 [Compound P23] | 183 to 184 °C

Structure (SMILES) | melting point
CCON1CCC2(CC1)NC(=O)C(c1cc(C)ccc1C)=C2OC(=O)C(C)(C)C [Compound P24] | 169 to 170 °C
CCON1CCC2(CC1)NC(=O)C(c1ccc(Cl)cc1Cl)=C2OC(=O)C(C)(C)C [Compound P26] | 165 to 166 °C
CCOC(=O)OC1=C(c2cc(Br)ccc2C)C(=O)NC12CCN(OC)CC2 [Compound P27] | 205 to 209 °C
CON1CCC2(CC1)NC(=O)C(c1cc(Br)ccc1C)=C2OC(=O)N(C)CCC#N [Compound P28] | 197 to 200 °C
CCOC(=O)OC1=C(c2ccc(Cl)c(Cl)c2)C(=O)NC12CCN(OC)CC2 [Compound P30] | 222 to 224 °C
CCOC(=O)OC1=C(c2cc(OC)ccc2OC)C(=O)NC12CCN(OC)CC2 [Compound P31] | 192 to 193 °C
CON1CCC2(CC1)NC(=O)C(c1c(Cl)cccc1Cl)=C2OC(=O)N(C)CCC#N [Compound P33] | 239 to 242 °C
CON1CCC2(CC1)NC(=O)C(c1cc(C)ccc1C)=C2OCC#N [Compound P35] | 104 to 106 °C
C=CCOC1=C(c2cc(C)ccc2C)C(=O)NC12CCN(OC)CC2 [Compound P37] | 173 to 174 °C
C#CCOC1=C(c2cc(C)ccc2C)C(=O)NC12CCN(OC)CC2 [Compound P38] | 184 to 185 °C
CON1CCC2(CC1)NC(=O)C(c1c(C)cc(C)cc1C)=C2OC(=O)N(C)CCC#N [Compound P40] | 220 to 224 °C
CON1CCC2(CC1)NC(=O)C(c1ccc(Cl)c(Cl)c1)=C2OC(=O)N(C)CCC#N [Compound P41] | 56 to 59 °C
COc1ccc(OC)c(C2=C(OC(=O)N(C)CCC#N)C3(CCN(OC)CC3)NC2=O)c1 [Compound P42] | 187 to 189 °C
C=CCOC(=O)OC1=C(c2cc(Br)ccc2C)C(=O)NC12CCN(OC)CC2 [Compound P45] | 157 to 158 °C
C=CCOC(=O)OC1=C(c2ccc(Cl)c(Cl)c2)C(=O)NC12CCN(OC)CC2 [Compound P46] | 210 to 213 °C
C=CCOC(=O)OC1=C(c2cc(OC)ccc2OC)C(=O)NC12CCN(OC)CC2 [Compound P47] | 156 to 157 °C
CCOC(=O)OC1=C(c2c(C)cc(C3CC3)cc2C)C(=O)NC12CCN(OC)CC2 [Compound P50] | 215 to 216 °C

Next, values leading:

melting point | Structure (SMILES)
206 to 209 °C | CCOC(=O)OC1=C(c2cc(Br)c(C)cc2C)C(=O)NC12CCN(OC)CC2 [Compound P51]
225 to 226 °C | CON1CCC2(CC1)NC(=O)C(c1cc(Br)c(C)cc1C)=C2OC(=O)C(C)(C)C [Compound P52]
229 to 230 °C | CON1CCC2(CC1)NC(=O)C(c1cc(-c3ccc(Cl)cc3)c(C)cc1C)=C2OC(=O)C(C)(C)C [Compound P54]
> 200 °C | CON1CCC2(CC1)NC(=O)C(c1c(C)cc(C3CC3)cc1C)=C2OC(=O)C(C)(C)C [Compound P57]
190 to 192 °C | CCOC(=O)OC1=C(c2ccc(C3CC3)cc2Cl)C(=O)NC12CCN(OC)CC2 [Compound P58]
195 to 197 °C | CON1CCC2(CC1)NC(=O)C(c1ccc(C3CC3)cc1Cl)=C2OC(=O)C(C)(C)C [Compound P59]
193 to 195 °C | CCOC(=O)OC1=C(c2ccc(C3CC3)cc2C)C(=O)NC12CCN(OC)CC2 [Compound P60]
244 to 245 °C | CON1CCC2(CC1)NC(=O)C(c1ccc(C3CC3)cc1C)=C2OC(=O)C(C)(C)C [Compound P61]
216 to 217 °C | CON1CCC2(CC1)NC(=O)C(c1cc(Br)c(F)cc1C)=C2OC(=O)C(C)(C)C [Compound P63]
101 to 104 °C | CON1CCC2(CC1)NC(=O)C(c1cc(-c3ccc(F)cc3)c(F)cc1C)=C2OC(=O)C(C)(C)C [Compound P72]
161 to 164 °C | COCCOC1=C(c2cc(C)ccc2C)C(=O)NC12CCN(OC)CC2 [Compound P73]
244 to 245 °C | CCON1CCC2(CC1)NC(=O)C(c1ccc(Cl)cc1Cl)C2=O (stereo not drawn) [Compound T6]
166 to 167 °C | CCON1CCC2(CC1)NC(=O)C(c1cc(C)ccc1C)C2=O (stereo not drawn) [Compound T7]
194 to 196 °C | CON1CCC2(CC1)NC(=O)C(c1cc(Br)ccc1C)C2=O (stereo not drawn) [Compound T8]
239 to 242 °C | CON1CCC2(CC1)NC(=O)C(c1ccc(Cl)c(Cl)c1)C2=O (stereo not drawn) [Compound T10]
194 to 196 °C | COc1ccc(OC)c(C2C(=O)NC3(CCN(OC)CC3)C2=O)c1 (stereo not drawn) [Compound T11]
> 250 °C | CON1CCC2(CC1)NC(=O)C(c1c(C)cc(C3CC3)cc1C)C2=O (stereo not drawn) [Compound T13]
206 to 207 °C | CON1CCC2(CC1)NC(=O)C(c1ccc(C3CC3)cc1Cl)C2=O (stereo not drawn) [Compound T17]
191 to 194 °C | CON1CCC2(CC1)NC(=O)C(c1ccc(C3CC3)cc1C)C2=O (stereo not drawn) [Compound T18]
229 to 230 °C | CON1CCC2(CC1)NC(=O)C(c1cc(Br)c(F)cc1C)=C2O [Compound T19, 3-(5-bromo-4-fluoro-2-methyl-phenyl)-4-hydroxy-8-methoxy-1,8-diaza-spiro[4.5]dec-3-en-2-one]
